Test [1] concerns the target Human Met (residues R974-S1390 with A1209G and V1290L) (Homo sapiens, UniProt P08581). Description: Human Met kinase assay, 33P-phosphoryl transfer radiometric (Example D-1, KinaseProfiler). Format: biochemical. The following applies: protocol of Example D-1 (compounds 21-27, 41-47, 99, 104); read-out: c-Met IC50. On the procedure:
(§1) Kinase activity and compound inhibition were investigated using the ^33P-Phosphoryl transfer radiometric kinase assay, performed using the KinaseProfiler™ service of Eurofins Pharma Discovery Services UK Limited. Dose-response experiments were performed using nine compound concentrations in a 96-well microtiter plate. For each assay, all compounds were prepared to a 50× final assay concentration (50 μM) in 100% DMSO, then diluted in a half-log series, with the final top concentration at 1 μM. This working stock of the compound was added to the assay well as the first component in the reaction, followed by the remaining components as detailed in the following assay protocols below. The positive control wells (100% kinase activity) contain all components of the reaction including 2% DMSO (control for solvent effects), except the compound of interest. Blank wells contain all components of the reaction, with the reference inhibitor, staurosporine. This reference compound was used to abolish kinase activity and generated the 0% kinase activity base-line. IC50 values were calculated by nonlinear regression analysis using the sigmoidal dose-response (variable slope) curve fit on XLFit version 5.3 (ID Business Solutions).
Example D-1: Human Met (residues R974-S1390 with A1209G and V1290L, 3.4 nM) was incubated with 8 mM MOPS pH 7.0, 0.2 mM EDTA, 250 µM […] (SEQ ID NO:3), 1 mM sodium orthovanadate, 5 mM […], 10 mM magnesium acetate, and 10 μM [γ-^33P-ATP]. The reaction was initiated by the addition of the Mg/ATP mix. After incubation for 40 minutes at room temperature, the reaction was stopped by the addition of phosphoric acid to a concentration of 0.5%. A reaction aliquot of 10 μL was then spotted onto a P30 filtermat and washed four times for 4 minutes in 0.425% phosphoric acid and once in methanol prior to drying and scintillation counting. Incorporated ^33P was measured using the Wallac Microbeta scintillation counter (Perkin Elmer).

Test [2] deals with Met (phospho-Met, HGF-stimulated PC-3 prostate cancer cells) (Homo sapiens (Human), UniProt P08581). Kind of test: Met autophosphorylation ELISA in PC-3 cells (Example F). The format is cell-based. The following applies: cellular activity; Met autophosphorylation ELISA in PC-3 cells; read-out: c-Met IC50. In outline:
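Compounds were tested on HGF-stimulated PC-3 cells. After 24 h culture and 3 h serum starvation, cells got compound for 1 h and 100 ng/mL HGF for 10 min, and Met tyrosine phosphorylation was measured by ELISA.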
(An ELISA detects its analyte on a solid surface through an enzyme-linked reagent.)

The target in test [3] is Human KDR (residues K790-V1356) (Homo sapiens (Human), UniProt P35968). Description: Human KDR kinase assay, 33P-phosphoryl transfer radiometric (Example B-1, KinaseProfiler). Format: biochemical. The following applies: protocol of Example B-1 (compounds 21-27, 41-47, 99, 104). As to the method: as §1
Chain of Human KDR (residues K790-V1356) (P35968 790-1356): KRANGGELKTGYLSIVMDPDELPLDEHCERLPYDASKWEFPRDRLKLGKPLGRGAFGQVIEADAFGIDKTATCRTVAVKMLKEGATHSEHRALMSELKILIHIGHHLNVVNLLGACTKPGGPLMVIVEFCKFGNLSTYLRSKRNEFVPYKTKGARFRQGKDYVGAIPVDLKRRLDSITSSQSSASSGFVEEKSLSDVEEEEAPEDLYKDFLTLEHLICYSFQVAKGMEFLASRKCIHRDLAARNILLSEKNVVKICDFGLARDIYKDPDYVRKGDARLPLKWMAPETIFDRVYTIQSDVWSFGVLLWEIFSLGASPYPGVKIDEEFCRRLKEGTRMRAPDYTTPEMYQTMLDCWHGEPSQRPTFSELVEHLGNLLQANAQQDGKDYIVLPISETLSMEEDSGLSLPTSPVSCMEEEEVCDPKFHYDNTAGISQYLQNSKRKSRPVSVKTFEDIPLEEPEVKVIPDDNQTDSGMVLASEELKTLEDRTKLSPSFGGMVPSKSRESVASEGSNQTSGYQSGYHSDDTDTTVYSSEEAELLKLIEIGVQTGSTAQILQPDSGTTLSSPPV
Example B-1: Human KDR (residues K790-V1356, 55 nM) was incubated with 8 mM MOPS pH 7.0, 0.2 mM EDTA, 0.33 mg/mL myelin basic protein, 10 mM magnesium acetate, and 10 μM [γ-^33P-ATP]. The reaction was initiated by the addition of the Mg/ATP mix. After incubation for 40 minutes at room temperature, the reaction was stopped by the addition of phosphoric acid to a concentration of 0.5%. A reaction aliquot of 10 μL was then spotted onto a P30 filtermat and washed four times for 4 minutes in 0.425% phosphoric acid and once in methanol prior to drying and scintillation counting. Incorporated ^33P was measured using the Wallac Microbeta scintillation counter (Perkin Elmer).

Consider 14 compounds from patent US12371428B2 (Exelixis, Inc., priority 2019, dated 2025).

Each structure is given as a SMILES string. Some results are limits rather than exact numbers.

Chain of Met (phospho-Met, HGF-stimulated PC-3 prostate cancer cells) (P08581 25-1390): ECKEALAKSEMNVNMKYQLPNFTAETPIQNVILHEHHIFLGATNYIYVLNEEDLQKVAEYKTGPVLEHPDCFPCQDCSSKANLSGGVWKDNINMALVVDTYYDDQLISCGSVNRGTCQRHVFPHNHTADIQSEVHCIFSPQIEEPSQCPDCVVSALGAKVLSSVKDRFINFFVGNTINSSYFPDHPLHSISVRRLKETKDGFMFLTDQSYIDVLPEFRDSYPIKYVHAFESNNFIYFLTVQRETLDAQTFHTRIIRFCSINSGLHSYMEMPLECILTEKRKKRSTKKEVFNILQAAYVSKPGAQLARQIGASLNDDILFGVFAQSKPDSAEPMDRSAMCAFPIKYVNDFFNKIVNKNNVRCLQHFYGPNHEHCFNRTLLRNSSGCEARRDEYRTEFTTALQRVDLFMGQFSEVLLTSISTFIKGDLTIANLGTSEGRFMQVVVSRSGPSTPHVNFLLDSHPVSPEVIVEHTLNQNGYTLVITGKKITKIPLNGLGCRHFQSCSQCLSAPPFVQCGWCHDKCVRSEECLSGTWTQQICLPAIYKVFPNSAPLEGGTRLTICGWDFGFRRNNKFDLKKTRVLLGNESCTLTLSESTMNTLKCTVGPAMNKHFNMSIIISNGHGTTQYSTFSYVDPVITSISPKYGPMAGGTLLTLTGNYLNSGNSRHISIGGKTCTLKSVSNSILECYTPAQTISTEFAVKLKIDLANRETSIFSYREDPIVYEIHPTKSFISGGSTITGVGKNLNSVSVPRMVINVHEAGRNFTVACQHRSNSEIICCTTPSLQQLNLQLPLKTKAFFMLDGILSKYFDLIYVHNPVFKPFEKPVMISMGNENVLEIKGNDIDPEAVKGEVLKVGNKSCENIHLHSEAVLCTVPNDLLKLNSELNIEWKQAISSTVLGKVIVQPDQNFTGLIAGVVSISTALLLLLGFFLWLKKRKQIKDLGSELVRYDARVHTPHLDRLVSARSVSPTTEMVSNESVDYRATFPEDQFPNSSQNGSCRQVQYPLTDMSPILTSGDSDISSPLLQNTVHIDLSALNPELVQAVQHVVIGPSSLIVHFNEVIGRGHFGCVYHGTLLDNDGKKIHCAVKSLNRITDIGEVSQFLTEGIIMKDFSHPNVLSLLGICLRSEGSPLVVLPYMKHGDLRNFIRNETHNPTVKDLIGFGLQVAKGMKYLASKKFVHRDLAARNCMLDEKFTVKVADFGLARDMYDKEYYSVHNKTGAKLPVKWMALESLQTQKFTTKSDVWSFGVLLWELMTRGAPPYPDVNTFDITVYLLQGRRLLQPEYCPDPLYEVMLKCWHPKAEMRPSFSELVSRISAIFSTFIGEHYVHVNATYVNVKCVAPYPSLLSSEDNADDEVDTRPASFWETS
Chain of Human Met (residues R974-S1390 with A1209G and V1290L) (P08581 25-1390 limits assumed, stated change not applied): as the sequence (P08581 25-1390) above

One may read the IC50 as the point on the concentration scale where inhibition reaches its midpoint. As for `COc1cc2nccc(Oc3ccc(NC(=O)c4cn(C(C)C)c(C)c(-c5ccc(Cl)c(Cl)c5)c4=O)cc3F)c2cc1OC` [Compound 23, 5-(3,4-Dichlorophenyl)-N-[4-(6,7-dimethoxyquinolin-4-yl)oxy-3-fluorophenyl]-6-methyl-4-oxo-1-propan-2-ylpyridine-3-carboxamide], the concentration for half-maximal inhibition (IC50) in test [1] is less than 100 nM; in test [2], 100 to 300 nM; in test [3] it was less than 100 nM.
On to `COc1cc2nccc(Oc3ccc(NC(=O)c4cn(C(C)C)c(C)c(-c5ccc(F)c(Cl)c5)c4=O)cc3F)c2nc1OC` [Compound 24, 5-(3-Chloro-4-fluorophenyl)-N-[4-[(6,7-dimethoxy-1,5-naphthyridin-4-yl)oxy]-3-fluorophenyl]-6-methyl-4-oxo-1-propan-2-ylpyridine-3-carboxamide], for which the 50% inhibitory concentration (IC50) in test [1], in test [2] and in test [3] was less than 100 nM each time.
Turning to `COc1cc2nccc(Oc3ccc(NC(=O)c4cn(C(C)C)c(C)c(-c5ccc(Cl)c(Cl)c5)c4=O)cc3F)c2nc1OC` [Compound 25, 5-(3,4-Dichlorophenyl)-N-[4-[(6,7-dimethoxy-1,5-naphthyridin-4-yl)oxy]-3-fluorophenyl]-6-methyl-4-oxo-1-propan-2-ylpyridine-3-carboxamide], the IC50 in test [1], in test [2] and in test [3] was less than 100 nM throughout.
Take `COc1cc2nccc(Oc3ccc(NC(=O)c4cn(C5CCCC5)c(C)c(-c5ccc(F)cc5)c4=O)cc3F)c2nc1OC` [Compound 26]: the half-inhibitory concentration (IC50) in test [1], in test [2] and in test [3] was less than 100 nM in each case.
On to `COc1cc2nccc(Oc3ccc(NC(=O)c4cn(C5CCCC5)c(C)c(-c5ccc(F)c(Cl)c5)c4=O)cc3F)c2nc1OC` [Compound 27, 5-(3-Chloro-4-fluorophenyl)-1-cyclopentyl-N-[4-[(6,7-dimethoxy-1,5-naphthyridin-4-yl)oxy]-3-fluorophenyl]-6-methyl-4-oxopyridine-3-carboxamide], for which the IC50 in test [1], in test [2] and in test [3] was less than 100 nM throughout.
As to `COc1cc2nccc(Oc3ccc(NC(=O)c4cn(C5CC5)cc(-c5ccc(F)cc5)c4=O)cc3F)c2nc1OC` [Compound 41, 1-Cyclopropyl-N-[4-[(6,7-dimethoxy-1,5-naphthyridin-4-yl)oxy]-3-fluorophenyl]-5-(4-fluorophenyl)-4-oxopyridine-3-carboxamide], the IC50 in test [1], in test [2] and in test [3] was less than 100 nM in each case.
As to `COc1cc2nccc(Oc3ccc(NC(=O)c4cncc(-c5ccc(F)cc5)c4O)cc3F)c2nc1OC` [Compound 42, N-[4-[(6,7-Dimethoxy-1,5-naphthyridin-4-yl)oxy]-3-fluorophenyl]-5-(4-fluorophenyl)-4-hydroxypyridine-3-carboxamide], the IC50 in test [1], in test [2] and in test [3] was less than 100 nM throughout.
Take `COc1cc2nccc(Oc3ccc(NC(=O)c4cn(C(C)C)cc(-c5ccc(F)cc5)c4=O)cc3F)c2cc1OC` [Compound 43, N-[4-(6,7-Dimethoxyquinolin-4-yl)oxy-3-fluorophenyl]-5-(4-fluorophenyl)-4-oxo-1-propan-2-ylpyridine-3-carboxamide]: the IC50 in test [1], in test [2] and in test [3] was less than 100 nM each time.
As for `COc1cc2nccc(Oc3ccc(NC(=O)c4cn(C(C)C)cc(-c5ccc(F)cc5)c4=O)cc3F)c2nc1OC` [Compound 44, N-[4-[(6,7-Dimethoxy-1,5-naphthyridin-4-yl)oxy]-3-fluorophenyl]-5-(4-fluorophenyl)-4-oxo-1-propan-2-ylpyridine-3-carboxamide], the IC50 in test [1], in test [2] and in test [3] was less than 100 nM in each case.
Regarding `COc1cc2nccc(Oc3ccc(NC(=O)c4cn(C)cc(-c5ccc(F)cc5)c4=O)cc3F)c2nc1OC` [Compound 45, N-[4-[(6,7-Dimethoxy-1,5-naphthyridin-4-yl)oxy]-3-fluorophenyl]-5-(4-fluorophenyl)-1-methyl-4-oxopyridine-3-carboxamide], the IC50 in test [1], in test [2] and in test [3] was less than 100 nM throughout.
Consider `COc1cc2nccc(Oc3ccc(NC(=O)c4cn(C5CCCC5)cc(-c5ccc(F)cc5)c4=O)cc3F)c2nc1OC` [Compound 46, 1-Cyclopentyl-N-[4-[(6,7-dimethoxy-1,5-naphthyridin-4-yl)oxy]-3-fluorophenyl]-5-(4-fluorophenyl)-4-oxopyridine-3-carboxamide], for which the IC50 in test [1], in test [2] and in test [3] was less than 100 nM in each case.
As to `COc1cc2nccc(Oc3ccc(NC(=O)c4cn(C5COC5)cc(-c5ccc(F)cc5)c4=O)cc3F)c2nc1OC` [Compound 47, N-[4-[(6,7-Dimethoxy-1,5-naphthyridin-4-yl)oxy]-3-fluorophenyl]-5-(4-fluorophenyl)-1-(oxetan-3-yl)-4-oxopyridine-3-carboxamide], the IC50 in test [1], in test [2] and in test [3] was less than 100 nM each time.
As to `CNc1ncc(C(=O)Nc2ccc(Oc3ccnc4cc(OC)c(OC)nc34)c(F)c2)c(=O)n1-c1ccc(F)cc1` [Compound 99, N-[4-[(6,7-Dimethoxy-1,5-naphthyridin-4-yl)oxy]-3-fluorophenyl]-1-(4-fluorophenyl)-2-(methylamino)-6-oxopyrimidine-5-carboxamide], the IC50 in test [1], in test [2] and in test [3] was less than 100 nM throughout.
Consider `COc1cc2nccc(Oc3ccc(NC(=O)c4c[nH]c(=S)n(-c5ccc(F)cc5)c4=O)cc3F)c2nc1OC` [Compound 104, N-[4-[(6,7-Dimethoxy-1,5-naphthyridin-4-yl)oxy]-3-fluorophenyl]-3-(4-fluorophenyl)-4-oxo-2-sulfanylidene-1H-pyrimidine-5-carboxamide], for which the half-inhibitory concentration (IC50) is greater than 300 nM in test [1], less than 100 nM in test [2] and greater than 300 nM in test [3].
